Data reported in ChEMBL document CHEMBL1944599, “From libraries to candidate: the discovery of new ultra long-acting dibasic β₂-adrenoceptor agonists” (Bioorg Med Chem Lett, 2012).
Active and inactive are the calls of the source. No cut-off for these calls is given here.

Tests used:
[1] = Apparent volume of distribution during terminal phase in iv dosed rat; format: ADME, organism-based; conditions: in vivo, read-out: Vz
D(2) dopamine receptor [2] = molecular target: T1, D(2) dopamine receptor (Homo sapiens, UniProt P14416); test: Displacement of radiolabeled spiperone from dopamine D2 receptor
[3] = molecular target: T2, Alpha-1D adrenergic receptor (Homo sapiens, UniProt P25100); test: Displacement of radiolabeled Prazosin from alpha1D adrenoceptor
T2 sequence (P25100 whole entry): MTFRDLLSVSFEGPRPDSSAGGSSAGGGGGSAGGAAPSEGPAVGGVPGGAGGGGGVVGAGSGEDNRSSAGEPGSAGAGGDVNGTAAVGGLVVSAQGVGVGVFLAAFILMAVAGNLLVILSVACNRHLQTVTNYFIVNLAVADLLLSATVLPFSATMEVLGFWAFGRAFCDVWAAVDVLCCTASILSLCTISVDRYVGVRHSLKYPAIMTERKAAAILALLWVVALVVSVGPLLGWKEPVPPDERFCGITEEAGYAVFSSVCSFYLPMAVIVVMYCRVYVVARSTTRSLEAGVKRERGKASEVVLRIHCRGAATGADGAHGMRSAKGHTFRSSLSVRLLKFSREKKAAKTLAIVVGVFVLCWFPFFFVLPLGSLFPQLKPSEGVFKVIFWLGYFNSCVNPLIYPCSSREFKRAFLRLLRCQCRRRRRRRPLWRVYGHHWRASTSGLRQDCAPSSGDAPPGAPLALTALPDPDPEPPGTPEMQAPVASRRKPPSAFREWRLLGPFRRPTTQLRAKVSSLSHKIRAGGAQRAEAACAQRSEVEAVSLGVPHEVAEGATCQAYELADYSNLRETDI

[4] = molecular target: Beta-2 adrenergic receptor (Cavia porcellus, UniProt Q8K4Z4); test: Agonist activity at beta2 adrenoceptor in guinea pig trachea assessed as reduction in methacholine-induced contraction; format: functional, tissue-based
Cavia porcellus [5] = test: Bronchoprotective activity in histamine-induced bronchoconstriction guinea pig model at 7 ug/kg, it after 24 hrs; format: functional
[6] = molecular target: T3, Beta-1 adrenergic receptor (Homo sapiens, UniProt P08588); test: Displacement of radiolabeled iodocyanopindolol from beta1 adrenoceptor
[7] = molecular target: T2, Alpha-1D adrenergic receptor; test: […] to Alpha-1D adrenoceptor expressed in HEK cells by calcium flux assay; format: cell-based, HEK293
[8] = Oral bioavailability in rat; format: ADME, organism-based; conditions: in vivo
physchem = conditions: 1-octanol/aqueous buffer, pH 7.4
in vivo = conditions: rat, iv
[9] = Oral bioavailability in dog; format: ADME, organism-based, Canis lupus familiaris; conditions: in vivo
D(2) dopamine receptor [10] = molecular target: T1, D(2) dopamine receptor; test: […] to dopamine D2 receptor expressed in HEK cells by GTPgammaS binding assay; format: cell-based, HEK293
[11] = Half life in it dosed dog; format: ADME, organism-based, Canis lupus familiaris; conditions: in vivo, inhaled or intranasal
[12] = molecular target: T4, Voltage-gated inwardly rectifying potassium channel KCNH2 (Homo sapiens, UniProt Q12809); test: Inhibition of human ERG by patch clamp assay
[13] = Clearance in iv dosed rat; conditions: in vivo
[14] = Inhibition of cytochrome P450; format: ADME
[15] = molecular target: Beta-2 adrenergic receptor (Cavia porcellus) (UniProt Q8K4Z4); test: Agonist activity at beta2 adrenoceptor in guinea pig trachea assessed as reduction in methacholine-induced contraction relative to untreated control; format: functional, tissue-based
D(2) dopamine receptor [16] = molecular target: T1, D(2) dopamine receptor; test: […] to dopamine D2 receptor expressed in HEK cells by GTPgammaS binding assay relative to control; format: cell-based; conditions: HEK293
[17] = molecular target: T5, Alpha-1D adrenergic receptor (Homo sapiens) (UniProt P25100); test: […] to Alpha-1D adrenoceptor expressed in HEK cells by calcium flux assay relative to control; format: cell-based; conditions: HEK293
T5 sequence (whole entry): T2 sequence (P25100 whole entry)

Cavia porcellus [18] = test: Bronchoprotective activity in histamine-induced bronchoconstriction guinea pig model at 7 ug/kg, it co-administered with beta2 adrenoceptor antagonist propranolol; format: functional, organism-based
[19] = molecular target: T6, Beta-2 adrenergic receptor (Homo sapiens, UniProt P07550); test: Displacement of radiolabeled iodocyanopindolol from recombinant beta2 adrenoceptor
Cytochrome P450 3A4 = Cytochrome P450 3A4 (Homo sapiens, UniProt P08684); test: Inhibition of CYP3A4; format: ADME
Cytochrome P450 2D6 = Cytochrome P450 2D6 (Homo sapiens, UniProt P10635); test: Inhibition of CYP2D6; format: ADME
[20] = molecular target: T4, Voltage-gated inwardly rectifying potassium channel KCNH2; test: Inhibition of human ERG
Hepatocyte = conditions: rat, hepatocytes
Cavia porcellus [21] = test: Bronchoprotective activity in it dosed guinea pig assessed as inhibition of histamine-induced constriction
[22] = molecular target: T3, Beta-1 adrenergic receptor; test: Binding affinity to beta1 adrenoceptor
[23] = molecular target: T6, Beta-2 adrenergic receptor; test: Agonist activity at human beta2 adrenoceptor expressed in H292 cells assessed as increase in cAMP accumulation after 60 mins by spectrophotometry; format: functional, cell-based
[24] = octanol/water, pH 7.4

T1 sequence (P14416 whole entry): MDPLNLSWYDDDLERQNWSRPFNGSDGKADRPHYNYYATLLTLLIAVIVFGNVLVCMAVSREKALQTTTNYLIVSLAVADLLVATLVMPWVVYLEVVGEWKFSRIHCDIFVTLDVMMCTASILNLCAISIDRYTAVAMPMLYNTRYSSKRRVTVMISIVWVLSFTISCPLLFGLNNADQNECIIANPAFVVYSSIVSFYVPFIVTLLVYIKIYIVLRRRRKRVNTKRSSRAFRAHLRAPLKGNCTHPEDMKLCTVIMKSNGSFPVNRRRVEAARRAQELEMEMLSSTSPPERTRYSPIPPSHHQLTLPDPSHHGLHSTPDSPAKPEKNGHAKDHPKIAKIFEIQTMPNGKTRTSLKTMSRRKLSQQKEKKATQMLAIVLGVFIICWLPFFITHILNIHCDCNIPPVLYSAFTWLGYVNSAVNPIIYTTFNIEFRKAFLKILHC
T4 sequence (Q12809 whole entry): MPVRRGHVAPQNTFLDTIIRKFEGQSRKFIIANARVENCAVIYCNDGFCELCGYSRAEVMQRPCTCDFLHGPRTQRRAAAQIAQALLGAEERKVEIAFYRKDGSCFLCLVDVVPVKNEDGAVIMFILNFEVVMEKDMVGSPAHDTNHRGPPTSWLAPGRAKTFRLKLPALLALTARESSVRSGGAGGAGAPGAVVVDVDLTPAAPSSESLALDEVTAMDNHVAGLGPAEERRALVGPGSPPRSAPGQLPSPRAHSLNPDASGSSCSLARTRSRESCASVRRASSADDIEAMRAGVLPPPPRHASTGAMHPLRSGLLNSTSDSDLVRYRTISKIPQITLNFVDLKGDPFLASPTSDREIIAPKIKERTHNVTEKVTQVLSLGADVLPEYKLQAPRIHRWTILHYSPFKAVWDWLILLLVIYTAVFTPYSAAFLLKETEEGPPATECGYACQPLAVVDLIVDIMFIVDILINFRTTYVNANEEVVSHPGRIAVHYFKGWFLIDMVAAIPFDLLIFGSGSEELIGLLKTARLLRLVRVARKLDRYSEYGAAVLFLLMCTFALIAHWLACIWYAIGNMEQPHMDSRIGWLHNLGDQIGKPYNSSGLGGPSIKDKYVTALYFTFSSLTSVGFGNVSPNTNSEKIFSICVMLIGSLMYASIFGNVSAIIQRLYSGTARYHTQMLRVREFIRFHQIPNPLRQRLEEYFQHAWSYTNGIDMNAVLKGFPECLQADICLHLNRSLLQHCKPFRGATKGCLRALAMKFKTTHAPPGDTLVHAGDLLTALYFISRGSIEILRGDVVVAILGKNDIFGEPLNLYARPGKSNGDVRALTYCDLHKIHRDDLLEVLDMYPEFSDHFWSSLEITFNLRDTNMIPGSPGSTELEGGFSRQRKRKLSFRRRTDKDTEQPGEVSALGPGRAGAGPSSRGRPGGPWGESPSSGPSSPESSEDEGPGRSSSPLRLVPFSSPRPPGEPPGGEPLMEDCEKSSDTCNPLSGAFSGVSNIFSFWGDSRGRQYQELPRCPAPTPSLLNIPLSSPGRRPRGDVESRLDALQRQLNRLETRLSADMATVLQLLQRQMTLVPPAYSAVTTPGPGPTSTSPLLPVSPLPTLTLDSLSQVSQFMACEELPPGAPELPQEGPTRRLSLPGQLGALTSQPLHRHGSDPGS
T3 sequence (P08588 whole entry): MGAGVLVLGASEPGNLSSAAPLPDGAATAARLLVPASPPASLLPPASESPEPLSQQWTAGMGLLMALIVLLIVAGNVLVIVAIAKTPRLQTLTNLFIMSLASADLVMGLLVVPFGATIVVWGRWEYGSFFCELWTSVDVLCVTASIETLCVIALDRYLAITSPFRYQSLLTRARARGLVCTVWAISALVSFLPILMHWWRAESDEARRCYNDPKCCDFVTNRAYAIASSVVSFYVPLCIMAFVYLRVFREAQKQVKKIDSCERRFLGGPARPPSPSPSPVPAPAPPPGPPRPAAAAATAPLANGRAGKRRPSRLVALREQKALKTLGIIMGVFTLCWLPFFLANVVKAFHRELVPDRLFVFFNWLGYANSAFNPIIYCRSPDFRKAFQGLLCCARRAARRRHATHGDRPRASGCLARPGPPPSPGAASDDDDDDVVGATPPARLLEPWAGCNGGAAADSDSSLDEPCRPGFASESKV
Sequence of Beta-2 adrenergic receptor (Cavia porcellus) (Q8K4Z4 whole entry, looked up): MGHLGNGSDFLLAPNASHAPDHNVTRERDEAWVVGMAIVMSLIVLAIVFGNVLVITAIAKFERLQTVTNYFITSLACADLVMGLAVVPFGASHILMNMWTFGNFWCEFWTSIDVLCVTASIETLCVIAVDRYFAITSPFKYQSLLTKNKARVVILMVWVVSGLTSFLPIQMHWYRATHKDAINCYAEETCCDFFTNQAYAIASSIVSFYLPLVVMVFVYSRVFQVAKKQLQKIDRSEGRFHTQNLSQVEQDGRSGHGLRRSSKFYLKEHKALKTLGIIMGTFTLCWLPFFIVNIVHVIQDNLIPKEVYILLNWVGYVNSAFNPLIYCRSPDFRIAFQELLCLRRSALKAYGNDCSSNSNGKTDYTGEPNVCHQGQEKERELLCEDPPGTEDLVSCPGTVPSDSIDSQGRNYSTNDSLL
Sequence of Beta-2 adrenergic receptor (Cavia porcellus, UniProt Q8K4Z4) (Q8K4Z4 whole entry): as the sequence (Q8K4Z4 whole entry, looked up) above
T6 sequence (P07550 whole entry): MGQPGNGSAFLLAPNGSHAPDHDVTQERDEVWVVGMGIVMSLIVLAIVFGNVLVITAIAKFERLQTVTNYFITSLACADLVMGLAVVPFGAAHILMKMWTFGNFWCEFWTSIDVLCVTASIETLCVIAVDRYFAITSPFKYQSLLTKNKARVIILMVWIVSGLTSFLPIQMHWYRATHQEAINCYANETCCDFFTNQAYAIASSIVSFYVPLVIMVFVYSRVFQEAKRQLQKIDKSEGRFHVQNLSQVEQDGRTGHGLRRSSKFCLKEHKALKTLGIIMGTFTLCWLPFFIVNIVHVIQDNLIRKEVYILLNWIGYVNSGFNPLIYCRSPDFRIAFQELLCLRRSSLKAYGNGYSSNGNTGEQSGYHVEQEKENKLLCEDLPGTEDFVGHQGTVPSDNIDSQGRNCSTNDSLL
Sequence of Cytochrome P450 2D6 (P10635 whole entry): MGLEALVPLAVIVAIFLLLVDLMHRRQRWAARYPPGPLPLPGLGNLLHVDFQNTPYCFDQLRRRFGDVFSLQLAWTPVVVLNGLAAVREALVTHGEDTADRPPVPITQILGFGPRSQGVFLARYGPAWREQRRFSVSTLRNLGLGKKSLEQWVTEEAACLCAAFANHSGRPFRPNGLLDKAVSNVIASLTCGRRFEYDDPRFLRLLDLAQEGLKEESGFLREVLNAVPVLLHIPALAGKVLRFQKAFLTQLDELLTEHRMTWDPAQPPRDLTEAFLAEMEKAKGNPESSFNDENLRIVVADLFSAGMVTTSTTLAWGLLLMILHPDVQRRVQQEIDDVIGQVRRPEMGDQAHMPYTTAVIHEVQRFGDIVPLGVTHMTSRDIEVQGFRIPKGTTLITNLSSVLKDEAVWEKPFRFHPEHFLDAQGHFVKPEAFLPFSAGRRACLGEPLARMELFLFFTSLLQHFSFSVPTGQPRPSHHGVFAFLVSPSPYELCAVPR
Sequence of Cytochrome P450 3A4 (P08684 whole entry): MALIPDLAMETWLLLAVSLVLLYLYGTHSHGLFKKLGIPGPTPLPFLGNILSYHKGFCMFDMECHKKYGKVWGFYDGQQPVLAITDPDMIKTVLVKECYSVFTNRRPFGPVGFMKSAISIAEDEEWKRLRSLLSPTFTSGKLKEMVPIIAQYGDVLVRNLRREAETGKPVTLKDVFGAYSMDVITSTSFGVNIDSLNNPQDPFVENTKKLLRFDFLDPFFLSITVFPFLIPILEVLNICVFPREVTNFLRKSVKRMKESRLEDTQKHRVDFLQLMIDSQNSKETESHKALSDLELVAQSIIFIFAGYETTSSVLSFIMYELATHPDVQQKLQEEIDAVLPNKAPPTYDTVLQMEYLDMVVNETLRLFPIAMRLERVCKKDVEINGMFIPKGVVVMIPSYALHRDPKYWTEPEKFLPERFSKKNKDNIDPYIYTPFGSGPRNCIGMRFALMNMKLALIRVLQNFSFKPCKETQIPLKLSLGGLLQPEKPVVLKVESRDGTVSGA

## COc1ccccc1CNCc1cccc(CCNC[C@H](O)c2ccc(O)c3[nH]c(=O)sc23)c1 [listing 1 of 2 here]
[1]
  Vd: 22 L/kg
D(2) dopamine receptor [2]
  IC50: 1000 nM
[3]
  IC50: 200 nM
[4]
  EC50: 0.501 nM
Cavia porcellus [5]
  Activity: 64%
[6]
  IC50: 50.1 nM
[7]
  EC50: 126 nM
[8]
  bioavailability: < 2%
physchem
  logD: 1.1
In vivo
  half-life: 14 h
[9]
  bioavailability: < 2%
D(2) dopamine receptor [10]
  EC50: 251 nM
[11]
  half-life: 48 h
[12]
  Activity: > 10 µM
[13]
  clearance: 20 mL/min/kg
[14]
  Activity: > 10 µM

## COc1ccccc1CNCc1cccc(CCNC[C@H](O)c2ccc(O)c3[nH]c(=O)sc23)c1 [listing 2 of 2 here]
[15]
  Intrinsic activity: 0.9
D(2) dopamine receptor [16]
  Intrinsic activity: 0.4
[17]
  Intrinsic activity: 0.3
Cavia porcellus [18]
  Activity: inactive

## O=c1[nH]c2c(O)ccc(CCNCCc3cccc(-c4cccc(CNCc5ccccc5)c4)c3)c2s1
[1]
  Vd: 29 L/kg
[4]
  EC50: 0.501 nM
[19]
  IC50: 31.6 nM
physchem
  logD: 0.8
In vivo
  half-life: 14 h
[15]
  Intrinsic activity: 0.9
[13]
  clearance: 23 mL/min/kg

## O=c1[nH]c2c(O)ccc([C@@H](O)CNCCc3cccc(CNCCc4c(Cl)cccc4Cl)c3)c2s1
D(2) dopamine receptor [2]
  IC50: 251 nM
Cytochrome P450 3A4
  inhibition (INH): Active
Cytochrome P450 2D6
  inhibition (INH): Active
[3]
  IC50: 63.1 nM
[6]
  IC50: 12.6 nM
physchem
  logD: 3.2
[20]
  inhibition (INH): Active

## CCc1cc2c(cc1CC)CC(NC[C@H](O)c1ccc(O)c3[nH]c(=O)ccc13)C2 [INDACATEROL]
Hepatocyte
  Drug metabolism: 51%
In vivo
  half-life: 7.6 h
Cavia porcellus [21]
  ED80: 14 µg/kg
[22]
  IC50: […]

## O=c1[nH]c2c(O)ccc([C@@H](O)CNCCc3ccc(CNCCc4c(Cl)cccc4Cl)cc3)c2s1
D(2) dopamine receptor [2]
  IC50: 1000 nM
Cytochrome P450 3A4
  inhibition (INH): Active
Cytochrome P450 2D6
  inhibition (INH): Active
[3]
  IC50: 79.4 nM
[23]
  EC50: 0.316 nM
[6]
  IC50: 398 nM
[19]
  IC50: 3.98 nM
physchem
  logD: 2.3
[20]
  inhibition (INH): Active

## COCCNCc1cccc(CCNC[C@H](O)c2ccc(O)c3[nH]c(=O)sc23)c1
[1]
  Vd: 28 L/kg
D(2) dopamine receptor [2]
  IC50: 794 nM
[3]
  IC50: 501 nM
[4]
  EC50: 3.16 nM
[6]
  IC50: 158 nM
[19]
  IC50: 25.1 nM
physchem
  logD: 0
In vivo
  half-life: 18 h
[15]
  Intrinsic activity: 0.8
[13]
  clearance: 18 mL/min/kg

## OCc1cc(C(O)CNCCCCCCOCCCCc2ccccc2)ccc1O (configuration not stated) [SALMETEROL]
Hepatocyte
  Drug metabolism: 85%
Cavia porcellus [21]
  ED80: 1 µg/kg

## COc1ccccc1CNCc1cccc(CCNC[C@H](O)c2ccc(O)c3[nH]c(=O)sc23)c1.Cl
Cavia porcellus [21]
  ED80: 7 µg/kg

## O=c1[nH]c2c(O)ccc(CCNCCS(=O)(=O)CCCOCCc3ccccc3)c2s1 [SIBENADET]
Hepatocyte
  Drug metabolism: > 117%
[22]
  IC50: > 10000 nM

## C[C@@H](NCc1ccccc1-c1ccc(CCNCCc2ccc(O)c3[nH]c(=O)sc23)cc1)c1ccccc1
[1]
  Vd: 22 L/kg
[4]
  EC50: 0.251 nM
[19]
  IC50: 0.794 nM
physchem
  logD: -0.3
In vivo
  half-life: 15 h
[15]
  Intrinsic activity: 0.9
[13]
  clearance: 19 mL/min/kg

## COc1ccccc1CCNCc1cccc(CCNC[C@H](O)c2ccc(O)c3[nH]c(=O)sc23)c1
D(2) dopamine receptor [2]
  IC50: > 794 nM
[3]
  IC50: 79.4 nM
[23]
  EC50: 0.316 nM
[6]
  IC50: 251 nM
[19]
  IC50: 0.794 nM
physchem
  logD: 0.8

## O=c1[nH]c2c(O)ccc([C@@H](O)CNCCc3cccc(CNCCc4ccccc4F)c3)c2s1
[1]
  Vd: 8.2 L/kg
D(2) dopamine receptor [2]
  IC50: 398 nM
[3]
  IC50: 126 nM
[4]
  EC50: 0.251 nM
[23]
  EC50: 0.158 nM
[6]
  IC50: 63.1 nM
[19]
  IC50: 0.501 nM
physchem
  logD: 1.1
In vivo
  half-life: 16 h
[15]
  Intrinsic activity: 0.9
[13]
  clearance: 6 mL/min/kg

## O=c1[nH]c2c(O)ccc([C@@H](O)CNCCc3cccc(CNCCc4ccccn4)c3)c2s1
[1]
  Vd: 41 L/kg
D(2) dopamine receptor [2]
  IC50: 1580 nM
[3]
  IC50: 200 nM
[4]
  EC50: 0.316 nM
[23]
  EC50: 0.501 nM
[6]
  IC50: 158 nM
[19]
  IC50: 2.51 nM
[15]
  Intrinsic activity: 0.9

## O=c1[nH]c2c(O)ccc([C@@H](O)CNCCc3cccc(CN4CCCC4)c3)c2s1
D(2) dopamine receptor [2]
  IC50: 3160 nM
[24]
  logD: 0.8
[3]
  IC50: 1000 nM
[23]
  EC50: 0.631 nM
[6]
  IC50: 316 nM
[19]
  IC50: 3.98 nM

## CC(CNCc1ccc(CCNC[C@H](O)c2ccc(O)c3[nH]c(=O)sc23)cc1)c1ccccc1 (some centres not stated)
D(2) dopamine receptor [2]
  IC50: 2510 nM
[3]
  IC50: 31.6 nM
[23]
  EC50: 0.398 nM
[6]
  IC50: 501 nM
[19]
  IC50: 0.2 nM
physchem
  logD: 1.2

## Cc1cccc2c(CCNCc3ccc(CCNC[C@H](O)c4ccc(O)c5[nH]c(=O)sc45)cc3)c[nH]c12
[1]
  Vd: 29 L/kg
D(2) dopamine receptor [2]
  IC50: > 794 nM
[3]
  IC50: 100 nM
[4]
  EC50: 0.2 nM
[23]
  EC50: 0.251 nM
[6]
  IC50: 316 nM
[19]
  IC50: 2 nM
In vivo
  half-life: 18 h
[15]
  Intrinsic activity: 0.8
[13]
  clearance: 18 mL/min/kg

## COCCNCc1ccc(CCNC[C@H](O)c2ccc(O)c3[nH]c(=O)sc23)cc1
D(2) dopamine receptor [2]
  IC50: > 10000 nM
[3]
  IC50: 631 nM
[23]
  EC50: 15.8 nM
[6]
  IC50: 794 nM
[19]
  IC50: 316 nM
physchem
  logD: -0.5
